Measured values taken from patent US20210246115A1 (Bioimics AB, priority 2017, published 2021).
Values after ≈ are worked out from the molar mass of the structure shown. Where a name gives a salt, the structure may show the parent alone. Read-outs that look alike come from different tables or passages of the source.

Columns and labels:
[1] = system: Staphylococcus aureus subsp. aureus (ATCC29213); test: MIC, broth microdilution (CLSI), Staphylococcus aureus ATCC29213; assay type: cell-based; conditions: for MIC: Staphylococcus aureus
[2] = system: Escherichia coli (ATCC25922); test: MIC, broth microdilution (CLSI), Escherichia coli; conditions: for MIC: Escherichia coli, ATCC25922, read-out: E. coli ATCC 25922 MIC, Table XIII
[3] = system: E. coli RNase P RNA, M1 RNA; test: Inhibition of bacterial RNase P activity, IC50 determination (cleavage of pATSerUG by M1 RNA); assay type: biochemical; conditions: NI: No inhibition
[4] = system: Staphylococcus aureus (ATCC25923); test: MIC, broth microdilution (CLSI), Staphylococcus aureus ATCC25923; conditions: Staphylococcus aureus, ATCC25923, read-out: S. aureus ATCC 25923 MIC
[5] = ATCC29213, read-out: S. aureus ATCC 29213 MIC, Table XIII
[6] = ATCC29213, Table XIII, read-out: S. aureus ATCC 29213 MIC

Row | Structure (SMILES) | MIC [1, 5] [µg/mL] | MIC [2] [µg/mL] | MIC [1, 6] [µg/mL] | also measured
1 | COc1cccc(C(CCNC2CCNCC2)c2cn(C3CCCCC3)c3ccc(C#N)cc23)c1 (centres unmarked) [Compound 401, 1-cyclohexyl-3-(1-(3-methoxyphenyl)-3-(piperidin-4-ylamino)propyl)-1H-indole-5-carbonitrile hydrochloride salt] | 16 | 16 |  | 
2 | Cc1cccc(C(CCN(C#N)C2CCC(NC(N)=O)CC2)c2cn(C3CCCCC3)c3ccccc23)c1 [Compound 361, 1-(((1S,4S)-4-(N-(3-(1-cyclohexyl-1H-indol-3-yl)-3-(m-tolyl)propyl)cyanamido)cyclohexyl)urea salt] |  | > 128 | > 128 | 
3 | Cl.Cl.NCCCNCCC(c1ccncc1)c1cn(C2CC3CCC2C3)c2ccccc12 (centres unmarked) [Compound 338, N1-(3-(1-(bicyclo[2.2.1]heptan-2-yl)-1H-indol-3-yl)-3-(pyridin-4-yl)propyl)propane-1,3-diamine hydrochloride salt] |  | 128 | 64 | 
4 | Cc1cccc(C(CCNCCCN)c2cn(C3CCCCC3)c3ccc(C(=O)O)cc23)c1 (centres unmarked) [Compound 387, 3-(3-((3-aminopropyl)amino)-1-(m-tolyl)propyl)-1-cyclohexyl-1H-indole-5-carboxylic acid compound with 2,2,2-trifluoroacetaldehyde (1:2)] |  | > 128 | 128 (≈ 286 µM) | 
5 | NC1CCC(NCCC(c2cccnc2)c2cn(CC3CCCCC3)c3ccccc23)CC1 (centres unmarked) [Compound 319, N1-(3-(1-(cyclohexylmethyl)-1H-indol-3-yl)-3-(pyridin-3-yl)propyl) cyclohexane-1,4-diamine hydrochloride salt] | 32 | 64 |  | 
6 | Cc1cccc(C(CCNCC2CNCCO2)c2cn(C3CCCCC3)c3ccc(Br)cc23)c1 (centres unmarked) [Compound 405, 3-(5-bromo-1-cyclohexyl-1H-indol-3-yl)-N-(morpholin-2-ylmethyl)-3-(m-tolyl)propan-1-amine hydrochloride salt] | 8 | 16 |  | 
7 | Cc1cccc(C(CCNCCCN)c2cn(CC3CCOCC3)c3ccc(C#N)cc23)c1 (centres unmarked) [Compound 318, 3-(3-((3-aminopropyl)amino)-1-(m-tolyl)propyl)-1-((tetrahydro-2H-pyran-4-yl)methyl)-1H-indole-5-carbonitrile hydrochloride salt] | 64 | > 128 |  | 
8 | Cc1cccc(C(CCNCC2(CN)CC2)c2cn(C3CCCCC3)c3ccccc23)c1 (centres unmarked) [Compound 390, N-((1-(aminomethyl)cyclopropyl)methyl)-3-(1-cyclohexyl-1H-indol-3-yl)-3-(m-tolyl)propan-1-amine] |  | 8 (≈ 18.6 µM) | 8 (≈ 18.6 µM) | 
9 | N[C@H]1CC[C@H](NCCC(c2ccncc2)c2cn(C3CC4CCC3C4)c3ccccc23)CC1 (stereo partly drawn) [Compound 336, (1R,4R)-N1-(3-(1-(bicyclo[2.2.1]heptan-2-yl)-1H-indol-3-yl)-3-(pyridin-4-yl)propyl)cyclohexane-1,4-diamine hydrochloride salt] | 64 | 128 |  | 
10 | Cc1cccc(C(CCNC2CCC(N)CC2)c2cn(C3CCCCC3)c3ccccc23)c1 [Compound 392, (1S,4S)- -N1-(3-(1-cyclohexyl-1H-indol-3-yl)-3-(m-tolyl)propyl) cyclohexane-1,4-diamine hydrochloride salt] |  |  |  | S. aureus ATCC 29213 MIC ([1]; Table XIII, hydrochloride salt): 8 µg/mL; E. coli ATCC 25922 MIC ([2]; Table XIII, hydrochloride salt): 8 µg/mL
11 | Cc1cccc(C(CCNC2CCC(N)CC2)c2cn(CC3CCOCC3)c3ccc(CN)cc23)c1 (centres unmarked) [Compound 311, N1-(3-(5-(aminomethyl)-1-((tetrahydro-2H-pyran-4-yl)methyl)-1H-indol-3-yl)-3-(m-tolyl)propyl) cyclohexane-1,4-diamine hydrochloride salt] | 128 | > 128 |  | 
12 | CNCCCNCCC(c1cccc(C)c1)c1cn(C2CCCCC2)c2ccccc12.Cl.Cl (centres unmarked) [Compound 368, N1-(3-(1-cyclohexyl-1H-indol-3-yl)-3-(m-tolyl)propyl)-N3-methylpropane-1,3-diamine hydrochloride] |  | 8 | 8 | 
13 | Cc1cccc(C(CCN)c2cn(C3CCCCC3)c3ccccc23)c1.Cl (centres unmarked) [Compound 352, 3-(1-cyclohexyl-1H-indol-3-yl)-3-(m-tolyl)propan-1-amine hydrochloride salt] |  | > 128 | 8 | 
14 | Cl.Cl.N#Cc1ccc2c(c1)c(C(CCNC1CCNCC1)C1CCCCC1)cn2C1CCCCC1 (centres unmarked) [Compound 406, 1-cyclohexyl-3-(1-cyclohexyl-3-(piperidin-4-ylamino)propyl)-1H-indole-5-carbonitrile salt] |  | 8 | 8 | 
15 | Cc1cccc(C(CCNC2CCNCC2)c2cn(CC3CCNCC3)c3ccc(C#N)cc23)c1 (centres unmarked) [Compound 326, 3-(3-(piperidin-4-ylamino)-1-(m-tolyl)propyl)-1-(piperidin-4-ylmethyl)-1H-indole-5-carbonitrile hydrochloride salt] | 32 | 128 |  | 
16 | Cc1cccc(CC(CCNCCCN)c2cn(C3CCCCC3)c3ccccc23)c1.Cl.Cl (centres unmarked) [Compound 419, N1-(3-(1-cyclohexyl-1H-indol-3-yl)-4-(m-tolyl)butyl)propane-1,3-diamine hydrochloride salt] |  | 8 | 8 | 
17 | Cl.Cl.NCCCNCCC(c1cccnc1)c1cn(CC2CCCCC2)c2ccccc12 (centres unmarked) [Compound 321, N1-(3-(1-(cyclohexylmethyl)-1H-indol-3-yl)-3-(pyridin-3-yl)propyl)propane-1,3-diamine hydrochloride salt] |  | 64 | 32 | 
18 | Cl.Cl.NCCCNCCC(c1cccnc1)c1cn(C2CCCCC2)c2ccccc12 (centres unmarked) [Compound 331, N1-(3-(1-cyclohexyl-1H-indol-3-yl)-3-(pyridin-3-yl)propyl)propane-1,3-diamine hydrochloride salt] |  | 128 | 32 | 
19 | Cc1cccc(C(CCNCC(O)CN)c2cn(C3CCCCC3)c3ccccc23)c1 (centres unmarked) [Compound 386, 1-amino-3-((3-(1-cyclohexyl-1H-indol-3-yl)-3-(m-tolyl)propyl)amino) propan-2-ol] |  | 8 (≈ 19.1 µM) | 16 (≈ 38.1 µM) | 
20 | Cl.N[C@H]1CC[C@H](NC(=O)CC(c2cccc(F)c2)c2cn(CC3CCCCC3)c3ccccc23)CC1 (stereo partly drawn) [Compound 137, N-((1R,4R)-4-aminocyclohexyl)-3-(1-(cyclohexylmethyl)-1H-indol-3-yl)-3-(3-fluorophenyl) propanamide hydrochloride salt] |  | 32 |  | IC50 [3]: 43 µM; MIC [4]: 8 µg/mL
21 | Cl.NC1CCC(NC(=O)CC(c2ccnc(O)c2)c2cn(CC3CCCCC3)c3ccccc23)CC1 [Compound 157, N-((1S,4S)-4-aminocyclohexyl)-3-(1-(cyclohexylmethyl)-1H-indol-3-yl)-3-(2-hydroxypyridin-4-yl)propanamide hydrochloride salt] |  | 262 |  | IC50 [3]: 3.4 µM; MIC [4]: 131 µg/mL
22 | Cc1cccc(C(CC(=O)N[C@H]2CC[C@H](N)CC2)c2cn(CC3CCCCC3)c3ccc(-c4ccccc4)cc23)c1.Cl (stereo partly drawn) [Compound 153, N-((1R,4R)-4-aminocyclohexyl)-3-(1-(cyclohexylmethyl)-5-phenyl-1H-indol-3-yl)-3-(m-tolyl)propanamide hydrochloride salt] |  | > 512 |  | IC50 [3]: 41 µM; MIC [4]: 64 µg/mL
23 | Cc1cccc(-c2ccc3c(c2)c(CCC(=O)NC2CCC(N)CC2)cn3CC2CCCCC2)c1.Cl (centres unmarked) [Compound 144, N-((1s,4s)-4-aminocyclohexyl)-3-(1-(cyclohexylmethyl)-5-(m-tolyl)-1H-indol-3-yl)propanamide hydrochloride salt] |  | 64 |  | IC50 [3]: 7.5 µM; MIC [4]: 4 µg/mL
